From BindingDB's records for doi:10.1007/s10822-022-00478-x (Roche Innovation Center Basel, F. Hoffmann-La Roche Ltd., 2022)

Target: cAMP and cAMP-inhibited cGMP 3',5'-cyclic phosphodiesterase 10A (Homo sapiens, UniProt Q9Y233)
Test: PDE10A assay
Method: Compounds were diluted in 20 mM HEPES/NaOH (pH 7.5), 10 mM MgCl2 and 0.05 mg/ml bovine serum albumin. A fixed amount of 2 ng/well human PDE10A enzyme was added and incubated at room temperature for 15 min under agitation. The reaction was started by the addition of the substrate cocktail [3H]cGMP (Perkin Elmer NET337001MC, S.A. 13.5 Ci/mmol) / cGMP at a final concentration of 50 nM and incubated for an additional 15 min. The reaction was stopped by the addition of 0.5 mg/well of Y-Si SPA beads. The plates were shaken for 1 h, followed by a brief centrifugation (170 g for 1 min). The radioactivity bound to the beads was estimated using a TopCount (Perkin-Elmer). For the determination of IC50 values, a four parameters logistics equation was used. pIC50 is defined as − log10(IC50).

Structure (SMILES)	IC50 [nM]
CCc1nc2ccc(OCc3cccc(N4CCCC4)n3)nn2c1C [2-ethyl-3-methyl-6-((6-(pyrrolidin-1-yl)pyridin-2-yl)methoxy)imidazo[1,2-b]pyridazine]	547
Cc1nc2ccccc2nc1OCc1cccc(N2CCCC2)n1 [2-methyl-3-((6-(pyrrolidin-1-yl)pyridin-2-yl)methoxy)quinoxaline]	38
c1cc(COc2nc(N3CCOCC3)c3ccccc3n2)nc(N2CCCC2)c1 [4-(2-((6-(pyrrolidin-1-yl)pyridin-2-yl)methoxy)quinazolin-4-yl)morpholine]	58
Cc1cc(C)n2nc(CCc3cncc(N4CCCC4)n3)nc2n1 [5,7-dimethyl-2-(2-(6-(pyrrolidin-1-yl)pyrazin-2-yl)ethyl)-[1,2,4]triazolo-[1,5-a]pyrimidine]	307
COCCN(C)C(=O)c1cnn(C)c1C(=O)Nc1ccn2cc(-c3cccc(OCCCF)c3)nc2n1 [Roche-Dataset for PDE10A, Compound 3]	15
CCN(C)C(=O)c1cnn(CCF)c1C(=O)Nc1ccn2cc(-c3ccccc3)nc2n1 [Roche-Dataset for PDE10A, Compound 26]	10000
Cn1cc(-c2ccccc2)nc1CCNC(=O)c1nc(C2CC2)cnc1Nc1cncnc1 [Roche-Dataset for PDE10A, Compound 36]	16
COC[C@H]1CCCN1c1nc(CCc2nc3c(C)ncc(C)n3n2)n(Cc2ccc(OC)cc2)n1 [Roche-Dataset for PDE10A, Compound 38]	15
Cc1cc(-n2nc(CCc3nc4c(C(F)(F)F)cc(Cl)c(C)n4n3)nc2N2CCCC2)ccn1 [Roche-Dataset for PDE10A, Compound 40]	9.83
COCCN(C)C(=O)c1cnn(C)c1C(=O)Nc1ccn2cc(-c3cccc(OCCF)c3)nc2n1 [Roche-Dataset for PDE10A, Compound 45]	13
CC(C)n1ncc2cc(CCc3nc(-c4ccccc4)cn3C)ncc21 [Roche-Dataset for PDE10A, Compound 48]	859
Cn1cc(-c2ccccc2)nc1CCc1nc2cccc(Cl)c2c(=O)[nH]1 [Roche-Dataset for PDE10A, Compound 52]	122
Cn1cc(-c2ccccc2)nc1COc1ncc(C2CC2)nc1C(=O)NCc1ccccc1 [Roche-Dataset for PDE10A, Compound 59]	57
Cc1nc2ccccc2nc1CCc1nc(-c2ccccc2)cn1CC1CC1 [Roche-Dataset for PDE10A, Compound 62]	9.29
Cc1cc(Cl)cc2c(=O)[nH]c(CCc3nc(-c4ccccc4)cn3C)nc12 [Roche-Dataset for PDE10A, Compound 70]	81
Cc1nc2ccccc2nc1CCc1nc(-c2ccccc2)cn1CC(F)(F)F [Roche-Dataset for PDE10A, Compound 72]	178
Cc1cccc2c(=O)[nH]c(CCc3nc(-c4ccccc4)cn3C)nc12 [Roche-Dataset for PDE10A, Compound 74]	15
Cc1nc(C(=O)N2CCC2)c(C(=O)Nc2ccn3nc(-c4ccccc4)nc3c2)n1C [Roche-Dataset for PDE10A, Compound 75]	20

Stronger by IC50, values ahead:

IC50 [nM]	Structure (SMILES)
2.26	O=C(Nc1cnc(-c2ccccn2)s1)c1nc(C2CC2)ccc1Nc1cncnc1
1.32	O=C(Nc1cc(-c2ccccn2)nn1C1CCCCC1)c1nc(C2CC2)ccc1Nc1cncnc1
4.74	Cc1c(C(F)F)nc2ccc(C#Cc3nc(N4CCCC4)nn3C)nn12 [2-(Difluoromethyl)-3-methyl-6-((1-methyl-3-(pyrrolidin-1-yl)-1H-1,2,4-triazol-5-yl)ethynyl)imidazo[1,2-b]pyridazine]
3.92	Cc1c(C(F)(F)F)nc2ccc(C#Cc3nc(N4CCCC4)n(C)n3)nn12 [3-Methyl-6-((1-methyl-5-(pyrrolidin-1-yl)-1H-1,2,4-triazol-3-yl)ethynyl)-2-(trifluoromethyl)imidazo[1,2-b]pyridazine]
7.71	CN(C)c1nc(OCc2cccc(N3CCCC3)n2)nc2ccc(Cl)cc12 [6-chloro-n,n-dimethyl-2-((6-(pyrrolidin-1-yl)pyridin-2-yl)methoxy)quinazolin-4-amine]
6.05	CCN(C)C(=O)c1cnn(C)c1C(=O)Nc1ccn2cc(-c3cccc(OCCCF)c3)nc2n1 [Roche-Dataset for PDE10A, Compound 1]
0.3	Cn1ncc(C(=O)N2CCC2)c1C(=O)Nc1ccn2nc(-c3ccccc3OCCCF)nc2c1 [Roche-Dataset for PDE10A, Compound 11]
0.35	Cn1ncc(C(=O)N2CCC2)c1C(=O)Nc1ccn2nc(-c3ccccc3OCCF)nc2c1 [Roche-Dataset for PDE10A, Compound 14]
1.82	Cc1nc2ccccc2nc1CCc1nc(-c2ccccc2)cn1-c1ccccn1 [Roche-Dataset for PDE10A, Compound 17]
3.09	CN(CCO)c1nc(OCc2nc(-c3ccccc3)cn2C)nc2ccc(Cl)cc12 [Roche-Dataset for PDE10A, Compound 19]
7.93	CCN(C)C(=O)c1cnn(C)c1C(=O)Nc1ccn2cc(-c3cccc(OCC(=O)OC)c3)nc2n1 [Roche-Dataset for PDE10A, Compound 20]
2.07	Cc1c(Cl)cc(OCC(=O)N2CCOCC2)c2nc(CCc3nc(N4CCCC4)nn3C)nn12 [Roche-Dataset for PDE10A, Compound 23]
1.41	O=C(Nc1cc(-c2ccccn2)nn1C1CCOCC1)c1nc(C2CC2)ccc1Nc1cncnc1 [Roche-Dataset for PDE10A, Compound 24]
7.34	Cn1ncc(C(=O)N2CCC2)c1C(=O)Nc1ccn2cc(-c3cccc(OCCCF)c3)nc2n1 [Roche-Dataset for PDE10A, Compound 28]
1.07	Cc1cc(-n2nc(N3CCCC3)nc2CCc2nc3c(C(F)(F)F)cc(Cl)c(C)n3n2)ccn1 [Roche-Dataset for PDE10A, Compound 34]
2.58	COc1ccc(Cn2nc(CCc3nc4c(Cl)cc(Cl)c(C)n4n3)nc2N2CCCC2)cc1 [Roche-Dataset for PDE10A, Compound 37]
8.81	CCN(C)C(=O)c1cnn(C)c1C(=O)Nc1ccn2cc(-c3cccc(OCCO)c3)nc2n1 [Roche-Dataset for PDE10A, Compound 39]
7.17	CN(C)C(=O)c1cnn(C)c1C(=O)Nc1ccn2cc(-c3cccc(OCCCF)c3)nc2n1 [Roche-Dataset for PDE10A, Compound 43]
1.08	Cn1cc(-c2ccccc2)nc1CCc1nc(N2CCOCC2)c2cc(Cl)ccc2n1 [Roche-Dataset for PDE10A, Compound 54]
3.25	CN(C)c1nc(CCc2nc(-c3ccccc3)cn2C)nc2ccc(Cl)cc12 [Roche-Dataset for PDE10A, Compound 55]
1.31	Cn1cc(-c2ccccc2)nc1/C=C/c1nc(N2CCOCC2)c2cc(Cl)ccc2n1 [Roche-Dataset for PDE10A, Compound 64]
5.36	Cn1ncc(C(=O)N2CCC2)c1C(=O)Nc1ccn2nc(-c3cccc(OCCF)n3)nc2c1 [Roche-Dataset for PDE10A, Compound 66]
1.73	Cn1ncc(C(=O)N2CCC2)c1C(=O)Nc1ccn2nc(-c3ccccc3OCF)nc2c1 [Roche-Dataset for PDE10A, Compound 71]
3.47	CCN(C)C(=O)c1cnn(C)c1C(=O)Nc1ccn2cc(-c3cccc(O)c3)nc2n1 [Roche-Dataset for PDE10A, Compound 73]
0.9	Cn1ncc(C(=O)N2CCC2)c1C(=O)Nc1ccn2nc(-c3cccc(OCCF)c3)nc2c1 [Roche-Dataset for PDE10A, Compound 76]
